Results taken from PMC4399389, “Identification of a laccase Glac15 from Ganoderma lucidum 77002 and its application in bioethanol production” (Biotechnology for Biofuels, 2015).
Values belong to the compound of their own block, whether it stands above or below them.

Legend:
Assay in all cases: oxidation, absorbance at […] nm
Type in all cases: biochemical, Ganoderma lucidum
[1] = tested on: T1, Glac15 (laccase, isoenzyme from G. lucidum 77002); conditions: optimum pH 4.5; 50 mM citrate-phosphate buffer; optimal temperature 45 °C; O2 as co-substrate
T1 construct: native secreted enzyme purified from culture filtrate (ultrafiltration, DEAE-Sepharose FF); signal peptide of 21 residues removed; N-terminus GIGPTTDLTISNADI; tryptic peptides matched Glac6 and Glac15 of strain Xiangnong No.1

[2] = tested on: T1, Glac15 (laccase, isoenzyme from G. lucidum 77002); conditions: optimum pH 5.0; 50 mM citrate-phosphate buffer; optimal temperature 55 °C; O2 as co-substrate
[3] = tested on: T1, Glac15 (laccase, isoenzyme from G. lucidum 77002); conditions: optimum pH 4.5; 50 mM citrate-phosphate buffer; optimal temperature 45 °C; O2 as co-substrate; remark: listed apart in the source
[4] = tested on: T1, Glac15 (laccase, isoenzyme from G. lucidum 77002); conditions: optimum pH 5.0; 50 mM citrate-phosphate buffer; optimal temperature 45 °C; O2 as co-substrate
[5] = tested on: T1, Glac15 (laccase, isoenzyme from G. lucidum 77002); conditions: optimum pH 4.5; 50 mM citrate-phosphate buffer; optimal temperature 50 °C; O2 as co-substrate
[6] = tested on: T1, Glac15 (laccase, isoenzyme from G. lucidum 77002); conditions: optimum pH 2.5; 50 mM citrate-phosphate buffer; optimal temperature 50 °C; O2 as co-substrate

Structure (SMILES): COc1cc(C=NN=Cc2cc(OC)c(O)c(OC)c2)cc(OC)c1O [Syringaldazine]
- Km [3]: 62 µM

Structure (SMILES): Oc1ccccc1O [Catechol]
- Km [4]: 780 µM

Structure (SMILES): CCn1c(=NN=c2sc3cc(S(=O)(=O)O)ccc3n2CC)sc2cc(S(=O)(=O)O)ccc21 [ABTS, 2,2′-azino-bis-(3-ethylbenzothiazoline-6-sulfonic acid)]
- Km [6]: 19 µM

Now from value to compound:

- Km [1]: 120 µM
Structure (SMILES): COc1cccc(OC)c1O [2,6-DMP, 2,6-dimethoxyphenol]

- Km [2]: 790 µM
Structure (SMILES): COc1ccccc1O [Guaiacol]

- Km [5]: 890 µM
Structure (SMILES): N[C@@H](Cc1ccc(O)c(O)c1)C(=O)O [L-dopamine]
